For 9 compounds, IC50 results are on record in patent publication US10023593B2, “ALK kinase inhibitor, and preparation method and uses thereof” (BEIJING PEARL BIOTECHNOLOGY LIMITED LIABILITY COMPANY, priority 2014, dated 2018).

One may read the IC50 as the concentration at which inhibition is half-maximal.

SMILES strings stand for the structures. Where only a bound is given, the exact number is not on record here.

One assay has as its target T1, L1196M mutant ALK kinase (Homo sapiens, UniProt Q9UM73, L1196M).
T1 construct: purchased Sino-US Crown Bioscience, Inc. batch number ALKm_20110923
Briefly: HTRF KinEASE-TK assay, inhibitory activity on L1196M mutant ALK kinase. The following applies: L1196M mutant ALK 1 ng/μl, substrate 1 μM, ATP 5 μM, 30° C. 35 minutes, read-out: Inhibition on ALK kinases (L1196M mutant), IC50. The class given is biochemical. In short, it runs like this: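 HTRF TK assay: mutant kinase 1 ng/μl, substrate 1 μM, ATP 5 μM, 5 mM MgCl2, 1 mM DTT, 1% DMSO, 35 min at 30 °C. 665/615 ratio read; inhibition normalised to no-compound and 10.4 μM LDK-378 controls; IC50 from curve fit.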
(In general: TR-FRET usually uses a lanthanide donor and a delayed reading to cut background.)

The subject of another assay is NCI-H2228 cell line. Briefly: CellTiter-Glo cell proliferation inhibition on NCI-H2228 cell line. It is filed as cell-based. The following applies: Homo sapiens, NCI-H2228 cells, 5000 cells/well, 4 days drug treatment. Summed up: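 NCI-H2228 cells, 5000/well in RPMI-1640 + 10% FBS, treated with compounds 2 h after seeding (0.5% DMSO final) for 4 days at 37° C. Viability by CellTiter-Glo luminescence; inhibition relative to DMSO control, IC50 from curve fit.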
On the technique in general: ATP-based viability assays read luminescence as a measure of living cells.

For the next assay, the target named is T2, cytochrome P450 1A2 (Homo sapiens, UniProt P05177).
T2 sequence (P05177 1-516): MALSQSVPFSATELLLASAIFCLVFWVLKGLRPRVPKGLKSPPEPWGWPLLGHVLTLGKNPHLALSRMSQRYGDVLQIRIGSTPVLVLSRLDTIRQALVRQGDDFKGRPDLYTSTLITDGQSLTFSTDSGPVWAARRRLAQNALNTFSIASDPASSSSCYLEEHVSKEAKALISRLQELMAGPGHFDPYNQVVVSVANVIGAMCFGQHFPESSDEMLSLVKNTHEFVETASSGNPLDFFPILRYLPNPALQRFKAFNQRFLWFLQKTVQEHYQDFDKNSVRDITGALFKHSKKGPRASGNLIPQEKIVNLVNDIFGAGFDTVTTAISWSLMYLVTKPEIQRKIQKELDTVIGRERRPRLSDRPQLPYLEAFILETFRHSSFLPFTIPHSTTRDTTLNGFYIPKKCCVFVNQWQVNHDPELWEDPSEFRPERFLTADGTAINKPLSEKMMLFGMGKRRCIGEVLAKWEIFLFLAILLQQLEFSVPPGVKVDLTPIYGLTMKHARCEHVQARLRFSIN
The assay is described as follows: Inhibitory activity on cytochrome P450 1A2. As to conditions: no significant inhibition. It is filed as in vitro ADME.

For a further assay, the target named is cytochrome P450 2C9 (Homo sapiens, UniProt P11712). Briefly: Inhibitory activity on cytochrome P450 2C9. It is filed as in vitro ADME. The following applies: no significant inhibition.
A further assay addresses cytochrome P450 2C19 (Homo sapiens, UniProt P33261). The assay is described as follows: Inhibitory activity on cytochrome P450 2C19. The class given is in vitro ADME. The following applies: no significant inhibition.

T1 sequence (Q9UM73 19-1620 L1196M): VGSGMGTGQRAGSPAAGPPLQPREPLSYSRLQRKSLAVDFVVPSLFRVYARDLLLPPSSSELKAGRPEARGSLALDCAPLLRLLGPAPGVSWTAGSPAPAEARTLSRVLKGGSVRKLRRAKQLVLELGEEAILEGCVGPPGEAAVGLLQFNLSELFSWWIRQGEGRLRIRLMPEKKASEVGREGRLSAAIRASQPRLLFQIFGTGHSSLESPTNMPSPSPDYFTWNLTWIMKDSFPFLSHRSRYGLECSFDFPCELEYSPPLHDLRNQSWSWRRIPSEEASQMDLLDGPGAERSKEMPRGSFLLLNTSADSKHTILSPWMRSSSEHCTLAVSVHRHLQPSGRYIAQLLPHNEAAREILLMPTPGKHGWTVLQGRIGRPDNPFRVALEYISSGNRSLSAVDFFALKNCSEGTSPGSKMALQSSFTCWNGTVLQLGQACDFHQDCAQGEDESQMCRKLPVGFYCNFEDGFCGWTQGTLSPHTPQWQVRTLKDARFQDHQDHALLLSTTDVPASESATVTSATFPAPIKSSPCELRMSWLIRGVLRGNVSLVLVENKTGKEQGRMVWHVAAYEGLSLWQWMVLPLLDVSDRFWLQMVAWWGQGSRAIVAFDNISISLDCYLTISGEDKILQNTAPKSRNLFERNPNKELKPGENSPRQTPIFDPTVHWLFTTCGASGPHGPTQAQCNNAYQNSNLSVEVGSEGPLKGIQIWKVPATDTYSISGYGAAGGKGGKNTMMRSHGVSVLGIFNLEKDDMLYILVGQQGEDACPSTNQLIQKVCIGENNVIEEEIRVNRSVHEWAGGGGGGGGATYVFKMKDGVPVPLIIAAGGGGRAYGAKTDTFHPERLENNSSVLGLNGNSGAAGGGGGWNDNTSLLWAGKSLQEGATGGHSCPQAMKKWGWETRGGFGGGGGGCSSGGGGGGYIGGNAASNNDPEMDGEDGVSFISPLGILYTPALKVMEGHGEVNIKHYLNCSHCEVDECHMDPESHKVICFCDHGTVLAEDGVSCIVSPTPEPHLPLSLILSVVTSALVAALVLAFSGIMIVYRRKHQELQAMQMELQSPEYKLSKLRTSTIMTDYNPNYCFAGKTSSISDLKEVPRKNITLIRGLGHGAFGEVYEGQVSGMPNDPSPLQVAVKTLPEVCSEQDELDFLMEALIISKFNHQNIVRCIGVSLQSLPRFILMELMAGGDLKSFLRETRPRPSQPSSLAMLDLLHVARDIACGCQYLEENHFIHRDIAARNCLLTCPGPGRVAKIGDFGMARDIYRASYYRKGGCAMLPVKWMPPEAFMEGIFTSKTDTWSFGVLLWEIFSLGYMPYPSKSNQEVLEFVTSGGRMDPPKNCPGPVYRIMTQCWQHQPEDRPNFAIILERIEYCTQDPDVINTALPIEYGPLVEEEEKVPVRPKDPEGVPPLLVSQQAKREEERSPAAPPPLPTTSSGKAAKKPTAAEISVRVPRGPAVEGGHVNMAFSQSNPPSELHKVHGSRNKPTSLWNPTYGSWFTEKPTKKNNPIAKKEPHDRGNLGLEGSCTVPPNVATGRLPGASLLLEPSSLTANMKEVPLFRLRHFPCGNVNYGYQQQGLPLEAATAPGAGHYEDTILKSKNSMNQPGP
Chain of cytochrome P450 2C19 (P33261 whole entry): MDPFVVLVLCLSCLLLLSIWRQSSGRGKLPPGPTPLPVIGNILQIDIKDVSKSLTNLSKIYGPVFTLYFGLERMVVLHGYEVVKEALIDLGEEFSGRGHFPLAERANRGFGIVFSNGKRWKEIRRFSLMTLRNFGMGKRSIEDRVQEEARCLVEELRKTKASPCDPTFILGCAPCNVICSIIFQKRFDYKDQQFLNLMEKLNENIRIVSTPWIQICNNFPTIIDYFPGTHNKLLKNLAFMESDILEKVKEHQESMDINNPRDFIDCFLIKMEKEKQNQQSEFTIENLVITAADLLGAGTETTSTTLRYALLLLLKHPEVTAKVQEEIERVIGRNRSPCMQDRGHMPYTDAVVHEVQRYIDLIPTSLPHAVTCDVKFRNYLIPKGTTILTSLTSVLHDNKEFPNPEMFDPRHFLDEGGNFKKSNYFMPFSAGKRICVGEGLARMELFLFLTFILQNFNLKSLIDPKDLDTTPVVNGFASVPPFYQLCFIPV
Chain of cytochrome P450 2C9 (P11712 whole entry): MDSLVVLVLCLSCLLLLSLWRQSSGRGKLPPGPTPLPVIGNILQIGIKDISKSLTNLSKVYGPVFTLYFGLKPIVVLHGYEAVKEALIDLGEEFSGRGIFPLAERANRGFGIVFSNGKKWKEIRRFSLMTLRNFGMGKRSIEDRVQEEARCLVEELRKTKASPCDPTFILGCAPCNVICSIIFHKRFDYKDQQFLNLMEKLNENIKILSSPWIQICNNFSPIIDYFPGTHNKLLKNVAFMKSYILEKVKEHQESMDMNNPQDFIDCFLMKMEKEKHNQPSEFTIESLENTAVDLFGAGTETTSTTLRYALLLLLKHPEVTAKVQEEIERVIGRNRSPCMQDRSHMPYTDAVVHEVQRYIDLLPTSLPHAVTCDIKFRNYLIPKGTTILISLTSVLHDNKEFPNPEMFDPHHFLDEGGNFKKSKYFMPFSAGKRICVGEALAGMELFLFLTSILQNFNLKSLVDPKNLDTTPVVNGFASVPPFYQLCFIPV

For the compound `CC(C)S(=O)(=O)c1nn(C)cc1Nc1nc(Nc2ccc(C3CCN(C)CC3)cc2OC2CC2)ncc1Cl` [Final product 40], the IC50 on L1196M mutant ALK kinase is 5 nM; in the assay on NCI-H2228 cell line (NCI-H2228, 96 h), 36 nM; against cytochrome P450 1A2 it was more than 10000 nM; at cytochrome P450 2C9, more than 10000 nM; on cytochrome P450 2C19, more than 10000 nM.
With `CC(C)CS(=O)(=O)c1nn(C)cc1Nc1nc(Nc2ccc(C3CCN(C)CC3)cc2OC2CC2)ncc1Cl` [Final product 43], the half-inhibitory concentration (IC50) on L1196M mutant ALK kinase is 12 nM; in the assay with NCI-H2228 cell line (NCI-H2228, 96 h), 125 nM; against cytochrome P450 1A2, more than 10000 nM; on cytochrome P450 2C9, more than 10000 nM; against cytochrome P450 2C19, more than 10000 nM.
Turning to `CC(C)S(=O)(=O)c1nn(C2CC2)cc1Nc1nc(Nc2cc(F)c(C3CCN(C)CC3)cc2OC2CC2)ncc1Cl` [Final product 46], the IC50 at L1196M mutant ALK kinase is 6 nM; with NCI-H2228 cell line (NCI-H2228, 96 h), 127 nM; on cytochrome P450 1A2, more than 10000 nM; against cytochrome P450 2C9, more than 10000 nM; against cytochrome P450 2C19, more than 10000 nM.
For the compound `CC(C)S(=O)(=O)c1nn(C)cc1Nc1nc(Nc2cc(Cl)c(C3CCN(C)CC3)cc2OC2CC2)ncc1Cl` [Final product 47], the IC50 at L1196M mutant ALK kinase is 10 nM; in the assay with NCI-H2228 cell line (NCI-H2228, 96 h) it was 103 nM; against cytochrome P450 1A2, more than 10000 nM; against cytochrome P450 2C9, more than 10000 nM; against cytochrome P450 2C19, more than 10000 nM.
`Cc1cc(Nc2ncc(Cl)c(Nc3cn(C)nc3S(=O)(=O)C(C)C)n2)c(OC2CC2)cc1C1CC(C)N(C)C(C)C1` (stereo not drawn) [Final product 95]: the IC50 on L1196M mutant ALK kinase is 3 nM; in the assay with NCI-H2228 cell line (NCI-H2228, 96 h), 26 nM; against cytochrome P450 1A2, more than 10000 nM; at cytochrome P450 2C9 it was more than 10000 nM; at cytochrome P450 2C19, more than 10000 nM.
Regarding `Cc1cc(Nc2ncc(Cl)c(Nc3cn(C)nc3S(=O)(=O)C(C)C)n2)c(OC2CC2)cc1C1CCN(CCO)CC1` [Final product 133, 2-(4-(4-(5-chloro-4-(3-(isopropylsulfonyl)-1-methyl-1H-pyrazol-4-amino)pyrimidin-2-amino)-5-cyclopropoxy-2-methylphenyl)piperidin-1-yl) ethanol], the IC50 at L1196M mutant ALK kinase was 6 nM; in the assay with NCI-H2228 cell line (96 h) it was 41 nM; against cytochrome P450 1A2, more than 10000 nM; at cytochrome P450 2C9, more than 10000 nM; on cytochrome P450 2C19 it was more than 10000 nM.
Consider `Cc1cc(Nc2ncc(Cl)c(Nc3cn(C)nc3S(=O)(=O)C(C)C)n2)c(OC2CC2)cc1C1CCN(CCN(C)C)CC1` [Final product 146, 5-chloro-N^2-(2-cyclopropoxy-4-(1-(2-(dimethylamino)ethyl)piperidin-4-yl)-5-methylphenyl)-N^4-(3-(isopropylsulfonyl)-1-methyl-1H-pyrazol-4-yl)-pyrimidin-2,4-diamine], for which the IC50 was 5 nM on L1196M mutant ALK kinase; 199 nM in the assay with NCI-H2228 cell line (96 h); more than 10000 nM against cytochrome P450 1A2; more than 10000 nM against cytochrome P450 2C9; more than 10000 nM at cytochrome P450 2C19.
For the compound `Cc1cc(Nc2ncc(Cl)c(Nc3cn(C)nc3S(=O)(=O)C(C)C)n2)c(OC2CC2)cc1C1CCN(C2COC2)CC1` [Final product 156], the half-inhibitory concentration (IC50) on L1196M mutant ALK kinase was 10 nM; in the assay with NCI-H2228 cell line (NCI-H2228, 96 h), 44 nM; on cytochrome P450 1A2, more than 10000 nM; at cytochrome P450 2C9, more than 10000 nM; at cytochrome P450 2C19, more than 10000 nM.
For the compound `CC(=O)N1CCC(c2cc(OC3CC3)c(Nc3ncc(Cl)c(Nc4cn(C)nc4S(=O)(=O)C(C)C)n3)cc2C)CC1` [Final product 160, 1-acetyl-4-(4-(5-chloro-4-(3-(isopropylsulfonyl)-1-methyl-1H-pyrazol-4-amino)pyrimidin-2-amine)-5-cyclopropoxy-2-methylphenyl)piperidine], the IC50 at L1196M mutant ALK kinase is 9 nM; in the assay on NCI-H2228 cell line (NCI-H2228, 96 h) it was 35 nM; at cytochrome P450 1A2 it was more than 10000 nM; against cytochrome P450 2C9, more than 10000 nM; against cytochrome P450 2C19 it was more than 10000 nM.
